Measurements published in patent US11540518B2, “Fungicidal oxadiazoles” (FMC Corporation, priority 2017, dated 2023).

Experiments:
Assay type in all cases: in vivo
[1] = test system: Puccinia recondita f. sp. tritici; assay: Test C: wheat leaf rust control on wheat seedlings; settings: sprayed to run-off on wheat seedlings, inoculated the following day, 100 = 100% disease control, 0 = no control
Source text: General protocol for preparing test suspensions for Tests A-C: the test compounds were first dissolved in acetone in an amount equal to 3% of the final volume and then suspended at the desired concentration (in ppm) in acetone and purified water (50/50 mix by volume) containing 250 ppm of the surfactant PEG400 (polyhydric alcohol esters). The resulting test suspensions were then used in Tests A-C. The test solution was sprayed to the point of run-off on wheat seedlings. The following day the seedlings were inoculated with a spore suspension of Puccinia recondita f. sp. tritici (the causal agent of wheat leaf rust) and incubated in a saturated atmosphere at 20° C. for 24 h, and then moved to a growth chamber at 20° C. for 6 days, after which time disease ratings were made. Results for Tests A-C are given in Table A. In the Table, a rating of 100 indicates 100% disease control and a rating of 0 indicates no disease control (relative to the controls). A dash (-) indicates the compound was not tested.

Phakopsora pachyrhizi = assay: Test A: Asian soybean rust control on soybean seedlings; settings: sprayed to run-off on soybean seedlings, inoculated the following day, 100 = 100% disease control, 0 = no control
Source text: General protocol for preparing test suspensions for Tests A-C: the test compounds were first dissolved in acetone in an amount equal to 3% of the final volume and then suspended at the desired concentration (in ppm) in acetone and purified water (50/50 mix by volume) containing 250 ppm of the surfactant PEG400 (polyhydric alcohol esters). The resulting test suspensions were then used in Tests A-C.
The test solution was sprayed to the point of run-off on soybean seedlings. The following day the seedlings were inoculated with a spore suspension of Phakopsora pachyrhizi (the causal agent of Asian soybean rust) and incubated in a saturated atmosphere at 22° C. for 24 h, and then moved to a growth chamber at 22° C. for 8 days, after which time visual disease ratings were made.
Results for Tests A-C are given in Table A. In the Table, a rating of 100 indicates 100% disease control and a rating of 0 indicates no disease control (relative to the controls). A dash (-) indicates the compound was not tested.

Zymoseptoria tritici = assay: Test B: wheat leaf blotch control on wheat seedlings; settings: sprayed to run-off on wheat seedlings, inoculated the following day, 100 = 100% disease control, 0 = no control
Source text: General protocol for preparing test suspensions for Tests A-C: the test compounds were first dissolved in acetone in an amount equal to 3% of the final volume and then suspended at the desired concentration (in ppm) in acetone and purified water (50/50 mix by volume) containing 250 ppm of the surfactant PEG400 (polyhydric alcohol esters). The resulting test suspensions were then used in Tests A-C. The test solution was sprayed to the point of run-off on wheat seedlings. The following day the seedlings were inoculated with a spore suspension of Zymoseptoria tritici (the causal agent of wheat leaf blotch) and incubated in a saturated atmosphere at 24° C. for 48 h, and then moved to a growth chamber at 20° C. for 17 days, after which time disease ratings were made. Results for Tests A-C are given in Table A. In the Table, a rating of 100 indicates 100% disease control and a rating of 0 indicates no disease control (relative to the controls). A dash (-) indicates the compound was not tested.

[2] = 250 ppm (incl. values marked * = tested at 250 ppm)

| SMILES | Test C disease control rating ([1]; 250 ppm) [%] | Test A disease control rating (Phakopsora pachyrhizi; 250 ppm) [%] | Test B disease control rating (Zymoseptoria tritici; [2]) | other results |
| --- | --- | --- | --- | --- |
| C#CCNC(=O)OCc1ccc(-c2noc(C(F)(F)F)n2)cc1 [Compound 12] | – | – | – | Test C disease control rating ([1]; 265 ppm): 100%; Test A disease control rating (Phakopsora pachyrhizi; 265 ppm): 100%; Test B disease control rating (Zymoseptoria tritici; 265 ppm): 100% |
| CNC(=O)OC(c1ccc(C)cc1)c1ccc(-c2noc(C(F)(F)F)n2)cc1 (stereo not drawn) [Compound 144] | 100 | 100 | 0% | – |
| CC(OC(=O)N(C)C)c1ccc(-c2noc(C(F)(F)F)n2)cc1 (stereo not drawn) [Compound 72] | – | – | 0* % | Test C disease control rating ([1]; 10 ppm): 55%; Test A disease control rating (Phakopsora pachyrhizi; 10 ppm): 100% |
| O=C(OC(c1ccc(-c2noc(C(F)(F)F)n2)cc1)c1cccc(Cl)c1)n1ccnc1 (stereo not drawn) [Compound 126] | – | – | 88* % | Test C disease control rating ([1]; 10 ppm): 0%; Test A disease control rating (Phakopsora pachyrhizi; 10 ppm): 99% |
| C=CCNC(=O)OCc1cccc(-c2noc(C(F)(F)F)n2)c1 [Compound 97] | 100 | 100 | 52% | – |
| CCNC(=O)OCCCn1cc(-c2noc(C(F)(F)F)n2)cn1 [Compound 18] | – | – | 50* % | pest or weed control at 50 ppm ([1]; Puccinia recondita, 168 h, 50 ppm, read-out: Test C disease control rating): 0%; pest or weed control at 50 ppm (Phakopsora pachyrhizi; Phakopsora pachyrhizi, 216 h, 50 ppm, read-out: Test A disease control rating): 38% |
| COC(=O)NN=Cc1ccc(-c2noc(C(F)(F)F)n2)cc1 [Compound 105, methyl 2-[[4-[5-(trifluoromethyl)-1,2,4-oxadiazol-3-yl]phenyl]methylene]-hydrazinecarboxylate] | – | – | 99% | pest or weed control at 250 ppm ([1]; Puccinia recondita, 168 h, 250 ppm, read-out: Test C disease control rating): 100%; pest or weed control at 250 ppm (Phakopsora pachyrhizi; Phakopsora pachyrhizi, 216 h, 250 ppm, read-out: Test A disease control rating): 100% |
| CCC(C)NC(=O)OCc1ccc(-c2noc(C(F)(F)F)n2)cc1 (racemic) [Compound 14] | 100 | 100 | 84% | – |
| CCOC(=O)NN=Cc1ccc(-c2noc(C(F)(F)F)n2)s1 [Compound 124] | – | – | 73* % | Test C disease control rating ([1]; 50 ppm): 100%; Test A disease control rating (Phakopsora pachyrhizi; 50 ppm): 100% |
| CC(C)CNC(=O)OC(c1ccccc1)c1ccc(-c2noc(C(F)(F)F)n2)cc1 (stereo not drawn) [Compound 140] | 86 | 100 | 34% | – |
| CCCNC(=O)OCc1ccc(-c2noc(C(F)(F)F)n2)s1 [Compound 46] | – | – | 97* % | Test C disease control rating ([1]; 10 ppm): 97%; Test A disease control rating (Phakopsora pachyrhizi; 10 ppm): 99% |
| CCNC(=O)OCc1ccc(-c2noc(C(F)(F)F)n2)cc1 [Compound 2] | – | – | – | Test C disease control rating ([1]; 260 ppm): 100%; Test A disease control rating (Phakopsora pachyrhizi; 260 ppm): 100%; Test B disease control rating (Zymoseptoria tritici; 260 ppm): 99% |
| CCCNC(=O)OC(c1ccccc1)c1ccc(-c2noc(C(F)(F)F)n2)cc1 (stereo not drawn) [Compound 139] | 100 | 100 | 56% | – |
| COCCNC(=O)OCc1ccc(-c2noc(C(F)(F)F)n2)cc1 [Compound 11] | 100 | 100 | 96% | – |
| CNC(=O)OC(c1ccc(-c2noc(C(F)(F)F)n2)cc1)c1ccccc1C (stereo not drawn) [Compound 129] | 100 | 100 | 74% | – |
| Cc1ccccc1C(OC(N)=O)c1ccc(-c2noc(C(F)(F)F)n2)cc1 (stereo not drawn) [Compound 128] | 100 | 100 | 88% | – |
| C#CCNC(=O)OC(c1ccc(-c2noc(C(F)(F)F)n2)cc1)c1cccc(Cl)c1 (stereo not drawn) [Compound 104] | 80 | 100 | 84% | – |
| CN(C)C(=O)OC(c1ccc(-c2noc(C(F)(F)F)n2)cc1)c1cccc(F)c1 (stereo not drawn) [Compound 134] | 89 | 100 | 50% | – |
| O=C(NCCCl)OCc1ccc(-c2noc(C(F)(F)F)n2)cc1 [Compound 7] | – | – | – | Test C disease control rating ([1]; 260 ppm): 100%; Test A disease control rating (Phakopsora pachyrhizi; 260 ppm): 100%; Test B disease control rating (Zymoseptoria tritici; 260 ppm): 98% |
| CN(C)C(=O)OCc1cccc(-c2noc(C(F)(F)F)n2)c1 [Compound 99] | 55 | 0 | 0% | – |
| NC(=O)OCc1cccc(-c2noc(C(F)(F)F)n2)c1 [Compound 93] | 100 | 100 | 97% | – |
| C=C(C)CNC(=O)OC(c1ccc(C)cc1)c1ccc(-c2noc(C(F)(F)F)n2)cc1 (stereo not drawn) [Compound 146] | 97 | 100 | 21% | – |
| Cc1ccc(C(OC(=O)n2ccnc2)c2ccc(-c3noc(C(F)(F)F)n3)cc2)cc1 (stereo not drawn) [Compound 100] | 97 | 100 | 98% | – |
| O=C(NCc1ccccc1)OCc1ccc(-c2noc(C(F)(F)F)n2)cc1 [Compound 13] | – | – | – | Test C disease control rating ([1]; 260 ppm): 100%; Test A disease control rating (Phakopsora pachyrhizi; 260 ppm): 100%; Test B disease control rating (Zymoseptoria tritici; 260 ppm): 36% |
| CCNC(=O)OCCc1ccc(-c2noc(C(F)(F)F)n2)cc1 [Compound 43, 2-[4-[5-(trifluoromethyl)-1,2,4-oxadiazol-3-yl]phenyl]ethyl N-ethylcarbamate] | – | – | 0* % | pest or weed control at 10 ppm ([1]; Puccinia recondita, 168 h, 10 ppm, read-out: Test C disease control rating): 97%; pest or weed control at 10 ppm (Phakopsora pachyrhizi; Phakopsora pachyrhizi, 216 h, 10 ppm, read-out: Test A disease control rating): 100% |
| CC(C)(C)NC(=O)OCc1ccc(-c2noc(C(F)(F)F)n2)cc1 [Compound 16] | – | – | – | Test C disease control rating ([1]; 255 ppm): 100%; Test A disease control rating (Phakopsora pachyrhizi; 255 ppm): 100%; Test B disease control rating (Zymoseptoria tritici; 255 ppm): 19% |
| CCNC(=O)OCC(OC)c1ccc(-c2noc(C(F)(F)F)n2)cc1 (racemic) [Compound 5] | – | – | – | Test C disease control rating ([1]; 260 ppm): 100%; Test A disease control rating (Phakopsora pachyrhizi; 260 ppm): 100%; Test B disease control rating (Zymoseptoria tritici; 260 ppm): 81% |
| C#CCN(C)C(=O)OCc1ccc(-c2noc(C(F)(F)F)n2)cc1 [Compound 32] | – | – | 0* % | Test C disease control rating ([1]; 10 ppm): 68%; Test A disease control rating (Phakopsora pachyrhizi; 10 ppm): 100% |
| CCNC(=O)OC(c1ccc(F)cc1)c1ccc(-c2noc(C(F)(F)F)n2)cc1 (stereo not drawn) [Compound 114] | 100 | 100 | 9% | – |
| CCOC(=O)NC(=O)OCCc1ccc(-c2noc(C(F)(F)F)n2)cc1 [Compound 78] | – | – | – | Test C disease control rating ([1]; 10 ppm): 91%; Test A disease control rating (Phakopsora pachyrhizi; 10 ppm): 100%; Test B disease control rating (Zymoseptoria tritici; 10 ppm): 95% |
